Measured values from ChEMBL document CHEMBL5150007, “Zinc enzymes in medicinal chemistry” (Eur J Med Chem, 2021).
Starred links: 1 amine or outer side, 2 acyl side, 3 side chain; linkers in the order of their positions; H or OH if unused. Residues, ends and D or L forms follow the SMILES beside them. *: point of attachment. CO = O=C([*:1])[*:2]; N(Me)OMe = CON(C)*

Assays:
Lethal factor [1] = target: T1, Lethal factor (Bacillus anthracis, UniProt P15917); assay: Binding affinity to Bacillus anthracis lethal factor assessed as inhibition constant
T1 sequence (P15917 whole entry): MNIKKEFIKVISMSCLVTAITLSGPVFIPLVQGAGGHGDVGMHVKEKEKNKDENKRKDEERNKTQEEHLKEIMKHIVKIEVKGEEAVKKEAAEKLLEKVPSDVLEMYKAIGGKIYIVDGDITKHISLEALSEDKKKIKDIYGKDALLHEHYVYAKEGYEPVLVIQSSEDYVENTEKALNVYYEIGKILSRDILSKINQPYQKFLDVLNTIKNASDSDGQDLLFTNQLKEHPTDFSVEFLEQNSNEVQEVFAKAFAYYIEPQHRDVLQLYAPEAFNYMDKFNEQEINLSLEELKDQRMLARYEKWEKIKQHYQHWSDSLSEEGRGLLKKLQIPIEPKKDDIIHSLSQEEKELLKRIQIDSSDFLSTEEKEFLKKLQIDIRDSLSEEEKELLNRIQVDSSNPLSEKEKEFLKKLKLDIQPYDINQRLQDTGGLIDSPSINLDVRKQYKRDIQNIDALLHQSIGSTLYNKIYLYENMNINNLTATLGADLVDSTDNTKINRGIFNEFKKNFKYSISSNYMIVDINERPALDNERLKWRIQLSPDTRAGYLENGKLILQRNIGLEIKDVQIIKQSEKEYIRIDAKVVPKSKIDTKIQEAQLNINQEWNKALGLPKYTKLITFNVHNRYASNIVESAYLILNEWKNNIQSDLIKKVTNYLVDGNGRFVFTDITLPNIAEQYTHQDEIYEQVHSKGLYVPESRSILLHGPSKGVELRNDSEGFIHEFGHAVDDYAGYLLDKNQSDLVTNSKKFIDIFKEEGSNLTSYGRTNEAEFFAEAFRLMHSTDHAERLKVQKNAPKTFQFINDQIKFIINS

[2] = Inhibition of NDM-1 (unknown origin) using imipenem as substrate by spectrophotometric assay; parameters: species or system Homo sapiens
Lethal factor [3] = target: T1, Lethal factor; assay: Inhibition of Bacillus anthracis lethal factor
Adenosine deaminase = target: T2, Adenosine deaminase (Homo sapiens, UniProt P00813); assay: Binding affinity to ADA (unknown origin) assessed as inhibition constant
T2 sequence (P00813 whole entry): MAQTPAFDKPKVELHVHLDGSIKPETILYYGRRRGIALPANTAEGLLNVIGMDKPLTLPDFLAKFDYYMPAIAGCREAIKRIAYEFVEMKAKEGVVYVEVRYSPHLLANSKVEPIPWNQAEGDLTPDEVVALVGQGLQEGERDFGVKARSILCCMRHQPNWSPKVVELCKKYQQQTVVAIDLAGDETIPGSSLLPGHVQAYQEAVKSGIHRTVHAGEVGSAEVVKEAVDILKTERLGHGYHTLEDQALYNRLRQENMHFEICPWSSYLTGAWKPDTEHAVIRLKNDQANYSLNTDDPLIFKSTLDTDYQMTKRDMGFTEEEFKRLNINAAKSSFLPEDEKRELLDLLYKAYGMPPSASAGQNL

[4] = Inhibition of NDM-1 (unknown origin); parameters: species or system Homo sapiens
[5] = target: Disintegrin and metalloproteinase domain-containing protein 17 (Homo sapiens, UniProt P78536); assay: Inhibition of human ADAM17
Sequence of Disintegrin and metalloproteinase domain-containing protein 17 (P78536 whole entry, the tested form may be a part): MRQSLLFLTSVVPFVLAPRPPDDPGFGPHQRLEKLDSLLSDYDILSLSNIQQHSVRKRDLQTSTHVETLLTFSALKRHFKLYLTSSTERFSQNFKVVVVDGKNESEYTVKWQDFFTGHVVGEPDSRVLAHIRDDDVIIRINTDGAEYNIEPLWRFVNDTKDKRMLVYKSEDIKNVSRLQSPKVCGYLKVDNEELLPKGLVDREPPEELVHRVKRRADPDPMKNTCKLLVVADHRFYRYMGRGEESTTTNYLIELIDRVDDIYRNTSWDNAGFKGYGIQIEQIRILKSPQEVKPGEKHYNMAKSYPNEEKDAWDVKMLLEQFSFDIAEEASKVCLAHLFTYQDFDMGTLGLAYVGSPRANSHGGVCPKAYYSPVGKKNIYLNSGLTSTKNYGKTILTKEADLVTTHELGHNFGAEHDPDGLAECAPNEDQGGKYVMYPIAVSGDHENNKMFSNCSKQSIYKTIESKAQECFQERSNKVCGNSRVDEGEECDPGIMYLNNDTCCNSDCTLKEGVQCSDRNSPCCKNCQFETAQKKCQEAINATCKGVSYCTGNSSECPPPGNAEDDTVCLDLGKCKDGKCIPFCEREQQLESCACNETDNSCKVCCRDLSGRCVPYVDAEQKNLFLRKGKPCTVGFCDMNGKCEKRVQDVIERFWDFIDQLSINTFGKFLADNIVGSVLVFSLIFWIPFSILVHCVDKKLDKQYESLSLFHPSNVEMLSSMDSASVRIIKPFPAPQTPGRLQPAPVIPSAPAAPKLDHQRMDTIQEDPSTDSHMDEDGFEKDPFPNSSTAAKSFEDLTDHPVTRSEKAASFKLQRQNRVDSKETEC

[6] = target: T3, Disintegrin and metalloproteinase domain-containing protein 10 (Homo sapiens, UniProt O14672); assay: Inhibition of human ADAM10 using (biotin-SPLAQAVRSSSRTP(3H)S-NH2) as a substrate by streptavidin-coated scintillation proximity assay
T3 sequence (O14672 whole entry): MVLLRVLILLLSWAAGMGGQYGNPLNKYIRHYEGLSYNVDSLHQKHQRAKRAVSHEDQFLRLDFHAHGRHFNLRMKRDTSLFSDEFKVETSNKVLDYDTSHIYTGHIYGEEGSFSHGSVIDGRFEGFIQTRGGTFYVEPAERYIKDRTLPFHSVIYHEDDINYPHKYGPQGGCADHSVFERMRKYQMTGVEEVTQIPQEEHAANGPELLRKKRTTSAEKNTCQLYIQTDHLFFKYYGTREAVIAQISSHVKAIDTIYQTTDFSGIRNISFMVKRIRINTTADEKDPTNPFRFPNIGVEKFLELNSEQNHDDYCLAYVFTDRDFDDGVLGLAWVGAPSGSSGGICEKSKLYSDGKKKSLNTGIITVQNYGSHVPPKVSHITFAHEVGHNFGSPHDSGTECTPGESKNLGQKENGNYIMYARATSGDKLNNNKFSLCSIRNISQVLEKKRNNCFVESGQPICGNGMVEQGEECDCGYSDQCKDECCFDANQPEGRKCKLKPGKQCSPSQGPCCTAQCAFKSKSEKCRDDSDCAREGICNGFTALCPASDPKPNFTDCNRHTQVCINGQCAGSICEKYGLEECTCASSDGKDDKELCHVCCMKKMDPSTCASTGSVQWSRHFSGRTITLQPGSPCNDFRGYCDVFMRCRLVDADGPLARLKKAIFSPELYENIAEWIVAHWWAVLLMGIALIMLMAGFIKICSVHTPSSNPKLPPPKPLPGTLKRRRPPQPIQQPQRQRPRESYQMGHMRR

[7] = Inhibition of VIM-2 (unknown origin); parameters: species or system Homo sapiens
[8] = Inhibition of farnesyltransferase (unknown origin); parameters: species or system Homo sapiens

Structure (SMILES): CCN(CCCC[C@@H](C[C@@H](OC)c1ccc(F)cc1)C(=O)NO)c1ccc(F)cc1
- Ki (Lethal factor [1]): 0.27 nM

Structure (SMILES): CON(C)C(=O)N[C@@H](CCCNC(=N)N)C(=O)N[C@@H](CC(C)C)C(=O)N[C@H](C(=O)N[C@@H](CCCNC(=N)N)C(=O)O)C(C)C ({N(Me)OMe-CO}-RLVR-OH)
- Ki (Lethal factor [1]): 6.4 nM

Structure (SMILES): C[C@@H](CS)C(=O)N1CCC[C@H]1C(=O)O
- IC50 [2]: 7.9 nM

Structure (SMILES): O=C(O[C@@H]1Cc2c(O)cc(O)cc2O[C@@H]1c1cc(O)c(O)c(O)c1)c1cc(O)c(O)c(O)c1 [EPIGALOCATECHIN GALLATE]
- IC50 (Lethal factor [3]): 97 nM

Structure (SMILES): CCCCCC[C@H]([C@H](C)O)n1cnc2c(N)ncnc21 [(+)-EHNA]
- Ki (Adenosine deaminase): 1 nM

Structure (SMILES): N[C@@H](CN[C@@H](CN[C@@H](CC(=O)O)C(=O)O)C(=O)O)C(=O)O
- IC50 [4]: 7000 nM

Structure (SMILES): CNC(=O)[C@@H](NC(=O)C(CCCc1ccccc1)[C@H](C)N(O)C=O)C(C)(C)C (some centres not stated)
- IC50 [5]: 541 nM
- IC50 [6]: 5.3 nM

Structure (SMILES): O=C(O)c1nccn1Cc1ccccc1
- IC50 [4]: 66700 nM
- IC50 [7]: 0.45 nM

Structure (SMILES): NC[C@@H]1O[C@H](O[C@H]2[C@@H](O)[C@H](O[C@@H]3[C@@H](O)[C@H](N)C[C@H](N)[C@H]3O[C@H]3O[C@H](CN)[C@@H](O)[C@H](O)[C@H]3N)O[C@@H]2CO)[C@H](N)[C@@H](O)[C@@H]1O [FRAMYCETIN]
- Ki (Lethal factor [1]): 7 nM

Structure (SMILES): CCC(C)[C@@H](CO[C@@H](Cc1ccccc1)C(=O)N[C@@H](CCS(C)(=O)=O)C(=O)O)NC[C@@H](N)CS (some centres not stated)
- IC50 [8]: 240 nM
